The source of these data is US20100286188A1, “MEANS FOR IMPROVING COGNITIVE FUNCTIONS AND MEMORY BASED ON HYDROGENATED PYRIDO(4,3-B)INDOLES (VARIANTS), PHARMACOLOGICAL MEANS BASED THEREON AND METHOD FOR THE USE THEREOF” (priority 2006, published 2010).

Structures are written as SMILES.

In series [1] the test system is mice. The series is described as follows: Acute toxicity on intragastric administration. The class given is in vivo. The following applies: intragastric administration. The procedure:
(§1) Investigation of the acute toxicity of Memantine® established that the death of the animals is observed after its intragastric administration in a dose of 300 mg/kg. The LD50 for mice on intragastric administration of Nootropil® (piracetam) is 8000 mg/kg.

The test system of series [2] is healthy, mature C57BL/6 male mice. The series is described as follows: Object location memory test (recognition of the new location of a known object). The class given is in vivo. The following applies: for dose with maximally expressed stimulating/activating effect on memory: mice, intragastric. The source says:
Method. In order to study the action of substances on the memory of animals in which there had been no prior destruction of neurons, we used the test of recognition of the new location of a known object (“Object location memory test”, B. Kolb, K. Buhrmann, R. McDonald and R. Sutherland, Cereb. Cortex, 6 (1994), pp 664-680; D. Gaffan, Eur. J. Neurosci., 4 (1992), pp. 381-388; T. Steckler, W. H. I. M. Drinkenburgh, A. Sahgal and J. P. Aggleton, Prog. Neurobiol., 54 (1998), pp. 289-311). This Object Recognition Test is used to study memory. It provides a reliable, easy-to-use assessment tool for analyzing the effects of test compounds on memory in animals. The test can be applied to normal healthy animals (controls), as well as to animals that are models of various neurodegenerative diseases.
Experiments were performed on healthy, mature C57BL/6 male mice aged 3-5 months and weighing 20-24 g. Male mice were used to exclude any possible negative effects resulting from hormonal changes associated with […] in female mice. The animals were kept in a vivarium with 5 to a cage in 12/12 hours light regime with light from 08.00 to 20.00 and free access to water and food. The observation chamber was made from white opaque organic glass and measured 48×38×30 cm. Brown glass vials with a diameter of 2.7 cm and a height of 5.5 cm were used as the test objects. 2-3 minutes before introducing an animal, the chamber and test objects were rubbed with 85% alcohol. The animals were always placed in the centre of the chamber.
Dimebon was dissolved in distilled water and administered intragastrically 1 hour before training in a volume of 0.05 ml per 10 g of animal weight. A corresponding volume of solvent was administered to control animals.
On the first day, the mice were brought into the test room and acclimatized for 20-30 minutes. After this, each animal was placed for 10 min. in an empty behavior chamber, which had been pretreated with alcohol, for familiarization. The animal was then replaced in the cage and taken to the vivarium.
On the following day, the same mice were brought into the test room, acclimatized for 20-30 min. and then given dimebon solution intragastrically. One hour after administration of the substance, an animal was placed in the behavior chamber, on the bottom of which two identical objects for recognition (glass vials) were placed on a diagonal at a distance of 14.5 cm from the corners. The training time for each animal was 20 min. After 20 min. it was replaced in the cage and returned to the vivarium.
Testing was performed 48 hours after training. For this purpose, after acclimatization an animal was placed for 1 min. in the chamber for refamiliarization. After a minute it was removed and one object was placed on the bottom of the chamber in a location known to the animal, and the other in a new location. The time spent investigating each object separately over a period of 10 min. was recorded with an accuracy of 0.1 s using two electronic stopwatches. The behavior of the animals was observed through a mirror. Purposeful approach of an animal's nose towards an object at a distance of 2 cm or direct touching of an object with the nose was regarded as a positive investigative reaction.
Since significant variations in object investigation time between animals are observed in this test, we calculated the percent investigation time for each mouse using the formula tNl/(tKl+tNl)×100. The total time spent on investigation of the two objects was taken as 100%. The results were further processed using the Student t-test method.

For series [3] the following is noted: cited from earlier work.
Series [4] relates to mice. The following applies: intragastric administration, source not stated; cited from earlier work.
The nature of series [5]: Acute toxicity on intragastric administration. It counts as in vivo. Particulars: mouse, in vivo, po. As for the experimental part:
as §1

In series [6] the test system is AD patients. The following applies: 20 mg three times daily; cited from earlier work.
Series [7] concerns rats with a model of AD. The following applies: cholinergic neurons damaged by chronic AF64A; cited from earlier work.
The mark [8] stands for this setting: dose 2.5 mg/kg, testing 48 hours after training.
Where [9] appears, read: dose 0.01 mg/kg intragastrically 1 hour before training, testing 48 hours after training.
The mark [10] stands for this setting: dose 0.1 mg/kg intragastrically, testing 48 hours after training.

For the compound `CC12CC3CC(C)(C1)CC(N)(C3)C2` [Memantine®, reference compound], the “dose at which death of the animals is observed” value in series [1] worked out at 300 mg/kg. For the same compound, in series [2] (setting [8]), the “percent of time on investigation of the object in a known location” value was determined as 40.6±6.9% and the “percent of time on investigation of the object in a new location” value was found to be 59.4±6.9%. In series [2], the “dose with maximally expressed stimulating/activating effect on memory” value worked out at 2.5 mg/kg.

With `NC(=O)CN1CCCC1=O` [Nootropil® (piracetam), piracetam], the “doses with stimulating effect on learning and memory” value in series [3] (active and passive avoidance conditioned response tests, depending on the test) is 200 to 500 mg/kg. The “maximally effective dose that stimulated learning and memory” value in series [3] (data from the literature) was 200 to 500 mg/kg. Also, the LD50 in series [4] is on record as 8000 mg/kg.

On to `Cc1ccc2c(c1)c1c(n2CCc2ccc(C)nc2)CCN(C)C1` [dimebon, 2,8-dimethyl-5-[2-(6-methyl-3-pyridyl)ethyl]-2,3,4,5-tetrahydro-1H-pyrido[4,3-b]indole], for which, in series [5], the 50% lethal dose (LD50) is greater than 1000 mg/kg. The “condition of AD patients (memory and cognitive functions)” value in series [6] is “improvement in the condition of AD patients”. Moreover, the “results in active avoidance conditioned reflex experiment versus control animals” value in series [7] is on record as “significantly better results”. In addition, the “stimulating effect on memory, times more active than Nootropil (piracetam)” value in series [2] (compared with literature doses of Nootropil) is on record as 2000-5000 times. Further, the “memory-enhancing activity relative to Memantine (times higher)” value in series [2] (comparing doses with essentially the same effect (0.01 vs 2.5 mg/kg)) is given as 250 times; in series [2] (comparing maximally effective doses (0.1 vs 2.5 mg/kg)) it was 25 times. In addition, the figures for the “percent of time on investigation of the object in the known location” value in series [2] (setting [9]) and in series [2] (setting [10]) were 42.5±4.8% and 37.6%, respectively. Moreover, the “percent of time on investigation of the object in the new location” value in series [2] (setting [9]) is listed as 57.5±4.8%; in series [2] (setting [10]), 62.4±6.5%. The “activating effect on memory” value in series [2] (dose increased to 0.25 mg/kg) is listed as “activating effect on memory disappears”. Also, the “dose with maximally expressed stimulating/activating effect on memory” value in series [2] was found to be 0.1 mg/kg. In addition, the “stimulating effect on memory, times more active than Memantine” value in series [2] (overall conclusion) was 25-250 times.
